In ChEMBL document CHEMBL1129314, “Synthesis of novel Se-substituted selenocysteine derivatives as potential kidney selective prodrugs of biologically active selenol compounds: evaluation of kinetics of beta-elimination reactions in rat renal cytosol” (J Med Chem, 1996):

Experiments:
[1] = molecular target: Kynurenine--oxoglutarate transaminase 1 (Rattus norvegicus) (UniProt Q08415); assay: Specific activity against beta-elimination reaction by rat renal cytosolic beta-lyase after incubation with 0.2 mg of protein/mL for 10 min at 37 degree C using 1 mM substrate conc.
Sequence of Kynurenine--oxoglutarate transaminase 1 (Rattus norvegicus) (Q08415 whole entry, looked up): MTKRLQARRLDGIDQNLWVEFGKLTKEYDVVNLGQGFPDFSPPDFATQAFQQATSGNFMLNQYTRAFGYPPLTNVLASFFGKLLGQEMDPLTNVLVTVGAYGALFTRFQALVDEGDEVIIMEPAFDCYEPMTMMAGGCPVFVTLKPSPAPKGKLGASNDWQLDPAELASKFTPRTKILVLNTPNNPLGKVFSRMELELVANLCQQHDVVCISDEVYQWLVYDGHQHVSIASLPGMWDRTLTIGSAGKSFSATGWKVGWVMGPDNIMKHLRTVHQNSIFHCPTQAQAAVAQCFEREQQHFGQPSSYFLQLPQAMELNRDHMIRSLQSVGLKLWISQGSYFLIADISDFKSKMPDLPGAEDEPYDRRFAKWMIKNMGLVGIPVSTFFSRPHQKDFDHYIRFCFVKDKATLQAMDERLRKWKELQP

[2] = molecular target: Kynurenine--oxoglutarate transaminase 1 (Rattus norvegicus) (UniProt Q08415); assay: Ratio of Vmax and Km for elimination of conjugates by rat renal cytosol

Row | SMILES | Specific activity (nM min-1 mg-1) [1] | Vmax / Km (nM min-1 mg-1 mM-1) [2]
1 | CCSC[C@H](N)C(=O)O | 0.1 | –
2 | N[C@@H](CSCc1ccccc1)C(=O)O | 0.2 | –
3 | N[C@@H](C[Se]c1ccc(Cl)cc1)C(=O)O | 5.2 | 16.7
4 | C[Se]C[C@H](N)C(=O)O | 4 | –
5 | N[C@@H](C[Se]Cc1ccccc1)C(=O)O | 9.8 | 70
6 | N[C@@H](C[Se]Cc1ccc(Cl)cc1)C(=O)O | 11.6 | 68.4
7 | N[C@@H](C[Se]Cc1ccc(Cl)c(Cl)c1)C(=O)O | 12.3 | 49
8 | Cc1ccc([Se]CC(N)C(=O)O)cc1 (single isomer, unassigned) | 3.8 | 16.7
9 | CC[Se]C[C@H](N)C(=O)O | 11 | 21.8
10 | CCCC[Se]C[C@H](N)C(=O)O | 0.9 | 1.8
11 | CCC[Se]CC(N)C(=O)O (single isomer, unassigned) | 8 | 25.7
12 | C[Se]CC(N)C(=O)O (single isomer, unassigned) | 7.1 | 13.2
13 | CCC[Se]C[C@H](N)C(=O)O | 3.3 | –
14 | Cc1ccc(C[Se]CC(N)C(=O)O)cc1 (single isomer, unassigned) | 13.1 | 70.2
15 | CC(C)[Se]C[C@H](N)C(=O)O | 14.9 | 66.9
16 | N[C@@H](C[Se]c1ccccc1)C(=O)O | 13.8 | 44.2
17 | COc1ccc(C[Se]C[C@H](N)C(=O)O)cc1 | 10.2 | 44.9
18 | COc1ccc(CSC[C@H](N)C(=O)O)cc1 | 0.1 | –
19 | Cc1ccc(CSC[C@H](N)C(=O)O)cc1 | 0.3 | –
20 | COc1ccc([Se]C[C@H](N)C(=O)O)cc1 | 4.3 | 14
21 | Cc1ccc(C[Se]C[C@H](N)C(=O)O)cc1 | 4.9 | –
22 | N[C@@H](CSc1ccccc1)C(=O)O | 0.2 | –
23 | Cc1ccc([Se]C[C@H](N)C(=O)O)cc1 | 0.1 | –
